Patent US9187475B2, “Pyrrolopyridinone derivatives as TTX-S blockers” (RaQualia Pharma Inc., priority 2012, dated 2015)
pIC50, pKi: −log10 of the molar value.

Legend:
Assay type in all cases: cell-based
human NaV1.3 channels = target: T1, human NaV1.3 channels (Homo sapiens, UniProt Q9NY46); test: FRET assay, HEK293 cells expressing human NaV1.3 channels; settings: read-out: activities against Nav1.3
T1 construct: expressed in transfected cells; host or cells: HEK293
Experimental: (§1) The ability of the pyrrolopyridinone derivatives of the formula (I) to inhibit the NaV1.3, Nav1.7 and Nav1.5 channels is measured by Fluorescence Resonance Energy Transfer (FRET) assay and electrophysiology assay described below.
(§2) This screen is used to determine the effects of compounds on human NaV1.3, human Nav1.7, and human Nav1.5 channels, utilising electrical field stimulation (EFS) system in 96-well plate format on FDSS (Hamamatsu Photonics) platform. The change of membrane potential is monitored with FRET dye pair, oxonol (DiSBAC2(3)) and coumarin (CC2-DMPE).
(§3) Each HEK293 cells expressing human NaV1.3 channels and HEK293 cells expressing human NaV1.5 channels are grown in T225 flasks, in a 5% CO2 humidified incubator to about 80% confluence. Media composition consists of Dulbecco's Modified Eagle Medium (high glucose), 10% FCS, 100 units/mL penicillin, 100 microgram/mL streptomycin and 500 microgram/mL Geneticin™. […]
(§4) The data are analyzed and reported as normalized ratios of intensities measured at […]. […]
(§5) This analysis is performed using a computerized specific program designed for FDSS generated data. Fluorescence ratio values are plotted using XLfit™ to determine an IC50 value for each compound.

human Nav1.7 channels = target: T2, human Nav1.7 channels (Homo sapiens, UniProt Q15858); test: FRET assay, CHO cells expressing human NaV1.7 channels; settings: read-out: activities against Nav1.7
T2 construct: expressed in transfected cells; host or cells: CHO
Experimental: as §1, §2
CHO cells expressing human NaV1.7 channels are grown in T225 flasks, in a 5% CO2 humidified incubator to about 80% confluence. Media composition consists of HAM/F12 with GlutaMAX™ I, 10% FCS, 100 units/mL penicillin and 100 microgram/mL hygromycin. […]
as §4, §5

human Nav1.5 channels = target: T3, human Nav1.5 channels (Homo sapiens, UniProt Q14524); test: FRET assay, HEK293 cells expressing human NaV1.5 channels; settings: read-out: activities against Nav1.5
T3 construct: expressed in transfected cells; host or cells: HEK293
T3 sequence (Q14524 whole entry): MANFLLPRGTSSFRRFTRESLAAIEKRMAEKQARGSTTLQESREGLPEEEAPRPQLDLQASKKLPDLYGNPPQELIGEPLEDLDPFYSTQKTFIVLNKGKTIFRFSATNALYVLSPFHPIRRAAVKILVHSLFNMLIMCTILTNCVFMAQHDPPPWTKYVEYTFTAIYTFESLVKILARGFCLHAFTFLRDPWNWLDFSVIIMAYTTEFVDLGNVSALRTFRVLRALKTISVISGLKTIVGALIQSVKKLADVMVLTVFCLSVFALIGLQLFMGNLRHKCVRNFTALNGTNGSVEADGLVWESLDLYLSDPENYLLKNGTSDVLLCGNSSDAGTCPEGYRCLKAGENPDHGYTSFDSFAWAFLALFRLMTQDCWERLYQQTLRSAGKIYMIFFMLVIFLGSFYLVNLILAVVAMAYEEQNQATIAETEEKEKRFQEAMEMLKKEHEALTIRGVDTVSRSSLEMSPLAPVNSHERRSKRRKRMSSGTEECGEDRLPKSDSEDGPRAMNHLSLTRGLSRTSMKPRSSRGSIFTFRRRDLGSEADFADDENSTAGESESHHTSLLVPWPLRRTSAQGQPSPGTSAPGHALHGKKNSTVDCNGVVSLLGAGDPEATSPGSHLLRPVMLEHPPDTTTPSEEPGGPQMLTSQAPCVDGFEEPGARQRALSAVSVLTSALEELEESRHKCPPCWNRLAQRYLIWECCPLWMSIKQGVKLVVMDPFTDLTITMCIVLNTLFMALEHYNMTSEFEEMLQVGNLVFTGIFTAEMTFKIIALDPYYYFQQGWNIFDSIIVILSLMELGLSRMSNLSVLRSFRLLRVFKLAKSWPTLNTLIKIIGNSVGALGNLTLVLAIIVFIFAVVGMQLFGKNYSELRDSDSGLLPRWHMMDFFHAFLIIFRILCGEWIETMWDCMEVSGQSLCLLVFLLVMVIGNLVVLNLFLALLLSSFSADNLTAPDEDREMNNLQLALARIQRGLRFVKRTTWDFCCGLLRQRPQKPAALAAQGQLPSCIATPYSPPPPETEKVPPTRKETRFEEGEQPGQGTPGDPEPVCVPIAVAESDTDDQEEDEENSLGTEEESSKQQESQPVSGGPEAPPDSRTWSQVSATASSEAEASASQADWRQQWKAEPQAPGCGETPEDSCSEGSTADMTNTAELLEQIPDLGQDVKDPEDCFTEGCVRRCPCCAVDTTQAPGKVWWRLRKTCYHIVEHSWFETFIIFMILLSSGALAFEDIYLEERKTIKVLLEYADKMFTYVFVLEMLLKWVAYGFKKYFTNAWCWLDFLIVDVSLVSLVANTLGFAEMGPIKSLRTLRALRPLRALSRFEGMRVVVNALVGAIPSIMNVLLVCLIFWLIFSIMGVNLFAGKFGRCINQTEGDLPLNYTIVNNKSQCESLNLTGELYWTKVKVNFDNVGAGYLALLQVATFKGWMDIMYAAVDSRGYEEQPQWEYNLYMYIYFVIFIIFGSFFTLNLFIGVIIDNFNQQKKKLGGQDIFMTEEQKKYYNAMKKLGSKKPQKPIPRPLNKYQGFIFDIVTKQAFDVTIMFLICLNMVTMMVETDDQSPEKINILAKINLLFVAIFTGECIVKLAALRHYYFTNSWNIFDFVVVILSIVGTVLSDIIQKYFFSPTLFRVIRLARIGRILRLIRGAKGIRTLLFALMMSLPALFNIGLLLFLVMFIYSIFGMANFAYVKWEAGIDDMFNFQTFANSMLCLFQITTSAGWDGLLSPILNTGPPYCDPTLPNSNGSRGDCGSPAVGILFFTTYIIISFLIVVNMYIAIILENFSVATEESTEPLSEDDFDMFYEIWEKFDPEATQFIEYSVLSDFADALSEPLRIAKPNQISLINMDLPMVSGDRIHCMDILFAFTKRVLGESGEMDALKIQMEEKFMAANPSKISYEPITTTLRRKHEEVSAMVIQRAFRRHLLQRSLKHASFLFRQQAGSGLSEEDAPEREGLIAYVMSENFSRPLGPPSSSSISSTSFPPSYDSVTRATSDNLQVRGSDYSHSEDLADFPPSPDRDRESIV
Experimental: as §1, §2, §3, §4, §5

human Nav1.3 (hSCN3A) = target: T4, human Nav1.3 (hSCN3A) (Homo sapiens, UniProt Q9NY46); test: Electrophysiology assay (whole cell patch clamp), human Nav1.3 (hSCN3A) expressing HEK293 cells; settings: dissociation constant for the inactivated state (Kinact); read-out: activities (Ki) against NaV1.3
T4 construct: expressed in transfected cells; host or cells: HEK293
T4 sequence (Q9NY46 whole entry): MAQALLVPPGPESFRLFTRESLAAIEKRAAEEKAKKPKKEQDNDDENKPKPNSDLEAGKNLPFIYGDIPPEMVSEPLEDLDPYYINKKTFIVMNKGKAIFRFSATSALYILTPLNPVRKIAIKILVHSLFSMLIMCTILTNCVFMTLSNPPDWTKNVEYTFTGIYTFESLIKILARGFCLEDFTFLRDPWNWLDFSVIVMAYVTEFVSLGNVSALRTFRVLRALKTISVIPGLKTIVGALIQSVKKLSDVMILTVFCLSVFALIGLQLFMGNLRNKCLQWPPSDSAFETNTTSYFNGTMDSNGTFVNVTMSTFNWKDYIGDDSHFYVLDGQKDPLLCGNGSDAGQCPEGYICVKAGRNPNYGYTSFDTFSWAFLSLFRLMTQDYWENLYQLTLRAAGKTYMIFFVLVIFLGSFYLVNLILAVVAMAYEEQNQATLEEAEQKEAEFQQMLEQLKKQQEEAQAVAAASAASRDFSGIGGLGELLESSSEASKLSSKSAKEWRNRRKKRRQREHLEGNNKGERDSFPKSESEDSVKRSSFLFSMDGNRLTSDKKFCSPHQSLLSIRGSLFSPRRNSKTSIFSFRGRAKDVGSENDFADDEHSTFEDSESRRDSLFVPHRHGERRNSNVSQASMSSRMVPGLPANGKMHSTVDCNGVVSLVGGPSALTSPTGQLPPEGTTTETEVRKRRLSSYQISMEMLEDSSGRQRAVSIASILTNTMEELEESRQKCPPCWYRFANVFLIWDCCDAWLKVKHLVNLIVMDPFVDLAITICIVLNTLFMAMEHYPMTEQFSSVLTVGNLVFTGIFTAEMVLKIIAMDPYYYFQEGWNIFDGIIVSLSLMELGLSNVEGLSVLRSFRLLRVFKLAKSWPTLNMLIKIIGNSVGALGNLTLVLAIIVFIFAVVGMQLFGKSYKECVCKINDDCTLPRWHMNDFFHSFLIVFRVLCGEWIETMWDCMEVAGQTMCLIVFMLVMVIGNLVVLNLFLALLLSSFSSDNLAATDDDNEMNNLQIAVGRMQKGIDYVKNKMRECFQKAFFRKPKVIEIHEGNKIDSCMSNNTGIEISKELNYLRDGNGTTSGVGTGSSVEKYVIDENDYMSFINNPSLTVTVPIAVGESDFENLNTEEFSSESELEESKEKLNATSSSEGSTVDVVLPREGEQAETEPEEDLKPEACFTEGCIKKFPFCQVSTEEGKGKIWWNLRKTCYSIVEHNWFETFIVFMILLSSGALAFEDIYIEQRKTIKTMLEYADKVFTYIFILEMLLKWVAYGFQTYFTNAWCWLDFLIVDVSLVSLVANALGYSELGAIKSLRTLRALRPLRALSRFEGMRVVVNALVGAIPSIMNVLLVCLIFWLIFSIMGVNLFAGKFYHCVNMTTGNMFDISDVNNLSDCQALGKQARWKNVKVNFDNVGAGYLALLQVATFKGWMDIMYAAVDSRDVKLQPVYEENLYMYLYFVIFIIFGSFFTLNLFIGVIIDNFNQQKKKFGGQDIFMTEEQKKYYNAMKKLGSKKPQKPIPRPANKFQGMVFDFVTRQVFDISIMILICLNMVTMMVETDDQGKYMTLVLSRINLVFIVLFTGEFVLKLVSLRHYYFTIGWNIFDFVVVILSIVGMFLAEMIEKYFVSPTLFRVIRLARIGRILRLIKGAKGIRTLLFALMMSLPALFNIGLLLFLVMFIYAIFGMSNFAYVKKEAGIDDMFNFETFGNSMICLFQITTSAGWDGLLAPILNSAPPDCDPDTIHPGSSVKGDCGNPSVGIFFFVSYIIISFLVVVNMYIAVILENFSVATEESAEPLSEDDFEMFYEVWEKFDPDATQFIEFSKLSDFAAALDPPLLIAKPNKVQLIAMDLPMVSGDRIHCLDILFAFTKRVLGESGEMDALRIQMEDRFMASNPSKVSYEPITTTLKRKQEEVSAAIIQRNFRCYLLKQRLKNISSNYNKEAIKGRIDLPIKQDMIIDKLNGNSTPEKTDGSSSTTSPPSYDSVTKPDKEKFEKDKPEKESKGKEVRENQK
Experimental: (§6) Whole cell patch clamp recording is used to assess the efficacy or selectivity of Na channel blocker on human Nav1.3 (hSCN3A) expressing HEK293 cells or human Nav1.7 (hSCN9A) expressing CHO cells. Human Nav1.3 expressing HEK293 cells are grown in growth media which contain: Dulbecco's […] (DMEM), 10% heat-inactivated fetal bovine serum (FBS) (Hyclone Laboratories Inc), 100 microgram/mL penicillin/100 U/mL streptomycin, 150 microgram/mL Zeocin™, and 3 microgram/mL Geneticin. Human […], expressing CHO cells are grown in growth media which contain: HAM/F-12, 9% heat-inactivated FBS (Hyclone Laboratories Inc), and 100 microgram/mL penicillin/100 U/mL streptomycin, and 100 microgram/mL hygromycin.
(§7) Na channel expressing cells are dissociated by 0.05 trypsin-EDTA, and then seeded on cover glass for 24 to 48 hr. […]
(§8) The normalized steady-state inactivation curve is constructed using 2 sec (for vehicle) or 60 sec (for drugs) conditioning pulse to different potentials followed immediately by the test pulse to −10 mV. […] The affinity of drugs to resting state of Na channels (Kresting or Kt) is assessed by 30 msec test pulse from a negative holding potential of −120 or −130 mV, where virtually all channels are in the resting state. Kr value is calculated by a conventional 1:1 binding model: Kresting(Kr)={[drug]Imax,drug/(Imax,control−Imax,drug)} [Math.2] […]

human Nav1.7 (hSCN9A) = target: T5, human Nav1.7 (hSCN9A) (Homo sapiens, UniProt Q15858); test: Electrophysiology assay (whole cell patch clamp), human Nav1.7 (hSCN9A) expressing CHO cells; settings: dissociation constant for the inactivated state (Kinact); read-out: activities (Ki) against NaV1.7
T5 construct: expressed in transfected cells; host or cells: CHO
Experimental: as §6, §7, §8

T1 sequence (Q9NY46 whole entry): as above

Structure (SMILES) | pIC50 (human NaV1.3 channels) | pIC50 (human Nav1.7 channels) | pIC50 (human Nav1.5 channels) | pKi (human Nav1.3 (hSCN3A)) | pKi (human Nav1.7 (hSCN9A))
CC(=O)Nc1nccc2c1CN(C(C)c1cnc(OCC(F)(F)F)c(C)c1)C2=O (single isomer, unassigned) [Example 2, N-(2-(1-(5-methyl-6-(2,2,2-trifluoroethoxy)pyridin-3-yl)ethyl)-1-oxo-2,3-dihydro-1H-pyrrolo[3,4-c]pyridin-4-yl)acetamide] | 6.36 | 5.96 | < 4.52 |  | 
Cc1cc(C(C)N2Cc3c(ccnc3NC(=O)C(C)C)C2=O)cnc1OCC(F)(F)F (single isomer, unassigned) [Example 3, N-(2-(1-(5-methyl-6-(2,2,2-trifluoroethoxy)pyridin-3-yl)ethyl)-1-oxo-2,3-dihydro-1H-pyrrolo[3,4-c]pyridin-4-yl)isobutyramide] |  |  |  | 6.85 | 7.04
